In brackets after ≈: the same amount, converted by molar mass. Like-named read-outs stand apart in the source and are kept apart here.
Tests used:
Assay in all cases: Antibacterial activity (MIC), agar dilution
Format in all cases: cell-based
Ps. aeruginosa GN918** = settings: Pseudomonas aeruginosa, Ps. aeruginosa GN918, cephalospolinase-producing, 10^6 cells per ml
Excerpt: (§1) The amount of bacteria inoculated was 10^4 cells per plate (10^6 cells per ml).
(§2) ** Cephalospolinase-producing bacteria

E. coli GN5482** = settings: E. coli GN5482, cephalospolinase-producing, 10^6 cells per ml
Excerpt: as §1, §2

Pro. vulgaris GN76** = tested on: Pro. vulgaris GN76**
Excerpt: as §1, §2

Ps. aeruginosa IFO3445 = tested on: Ps. aeruginosa IFO3445
Excerpt: as §1

Pro. morganii T-216 = settings: 37° C.
Excerpt: as §1

St. aureus FDA209P = settings: St. aureus FDA209P, 10^6 cells per ml, 37° C., 20 hours
Excerpt: as §1

Pro. mirabilis T-111 = settings: 37° C.
Excerpt: as §1

Kl. pneumoniae Y-50 = settings: 10^6 cells per ml, 37° C.
Excerpt: as §1

Kl. pneumoniae Y-41 = settings: 37° C., 20 hours
Excerpt: as §1

Ent. cloacae IID977 = tested on: Ent. cloacae IID977
Excerpt: as §1

Aci. antitratus A-6 = tested on: Aci. antitratus A-6
Excerpt: as §1

E. coli TK-111 = tested on: E. coli TK-111
Excerpt: as §1

Pro. vulgaris GN3027 = settings: Pro. vulgaris GN3027, 10^6 cells per ml, 37° C., 20 hours
Excerpt: as §1

E. coli NIHJ JC-2 = settings: E. coli NIHJ JC-2, 10^6 cells per ml, 37° C., 20 hours
Excerpt: as §1

Ps. aeruginosa S-68 = tested on: Ps. aeruginosa S-68
Excerpt: as §1

St. aureus F-137* = tested on: St. aureus F-137*
Excerpt: as §1
(§3) * Penicillinase-producing bacteria

Ps. aeruginosa GN3379* = settings: Ps. aeruginosa GN3379, penicillinase-producing, 10^6 cells per ml
Excerpt: as §1, §3

Kl. pneumoniae Y-4* = settings: Kl. pneumoniae Y-4, penicillinase-producing, 10^6 cells per ml
Excerpt: as §1, §3

E. coli TK-3* = tested on: E. coli TK-3*
Excerpt: as §1, §3

[1] = Escherichia coli, 20 h, read-out: MIC
[2] = Proteus vulgaris, 20 h, Pro. vulgaris GN76, cephalospolinase-producing, 10^6 cells per ml, read-out: MIC
[3] = Pseudomonas aeruginosa, IFO3445, 20 h
[4] = Staphylococcus aureus, FDA209P, 20 h, read-out: MIC
[5] = Proteus mirabilis, T111, 10^6 cells per ml, 20 hours, read-out: MIC
[6] = Klebsiella pneumoniae, Y50, 20 h, read-out: MIC
[7] = Klebsiella pneumoniae, Y41, 10^6 cells per ml, read-out: MIC
[8] = Enterobacter cloacae, IID977, 20 h
[9] = 20 h, Aci. antitratus A-6, 10^6 cells per ml, 37° C., 20 hours, read-out: MIC
[10] = Escherichia coli, TK111, 20 h, E. coli TK-111, 10^6 cells per ml, 37° C., 20 hours, read-out: MIC
[11] = Proteus vulgaris, GN3027, 20 h, read-out: MIC
[12] = Escherichia coli, NIHJJC2, 20 h, read-out: MIC
[13] = Pseudomonas aeruginosa, S68, 20 h
[14] = Staphylococcus aureus, 20 h, St. aureus F-137, penicillinase-producing, 10^6 cells per ml, read-out: MIC
[15] = Pseudomonas aeruginosa, 20 h, read-out: MIC
[16] = Klebsiella pneumoniae, 20 h, read-out: MIC
[17] = Morganella morganii, T216, 10^6 cells per ml, 20 hours, read-out: MIC
[18] = Enterobacter cloacae, IID977, 20 h, Ent. cloacae IID977, 10^6 cells per ml, 37° C., 20 hours, read-out: MIC
[19] = Pseudomonas aeruginosa, S68, Ps. aeruginosa S-68, 10^6 cells per ml, 37° C., 20 hours, read-out: MIC
[20] = Escherichia coli, 20 h, E. coli TK-3, penicillinase-producing, 10^6 cells per ml, read-out: MIC
[21] = Pseudomonas aeruginosa, Ps. aeruginosa IFO3445, 10^6 cells per ml, 37° C., 20 hours, read-out: MIC

Row | SMILES | MIC (Ps. aeruginosa GN918**; 20 h, read-out: MIC) | MIC (E. coli GN5482**; [1]) | MIC (Pro. vulgaris GN76**; [2]) | MIC (Ps. aeruginosa IFO3445; [3]) | MIC (St. aureus FDA209P; [4]) | MIC (Pro. mirabilis T-111; [5]) | MIC (Kl. pneumoniae Y-50; [6]) | MIC (Kl. pneumoniae Y-41; [7]) | MIC (Aci. antitratus A-6; [9]) | MIC (E. coli TK-111; [10]) | MIC (Pro. vulgaris GN3027; [11]) | MIC (E. coli NIHJ JC-2; [12]) | MIC (St. aureus F-137*; [14]) | MIC (Ps. aeruginosa GN3379*; [15]) | MIC (Kl. pneumoniae Y-4*; [16]) | MIC (Pro. morganii T-216; [17]) | MIC (Ent. cloacae IID977; [18]) | MIC (Ps. aeruginosa S-68; [19]) | MIC (E. coli TK-3*; [20]) | MIC (Ps. aeruginosa IFO3445; [21]) | further results
1 | CC(=O)Oc1ccc(-n2cc(C(=O)OCCN(C)C)c(=O)cc2-c2ccc(N(C)C)cc2)cc1 [drawing 38] | – | – | – | – | – | – | – | – | – | – | – | – | – | – | – | – | – | – | – | – | MIC (Ps. aeruginosa GN918**; GN918, 20 h): 3.13 µg/mL (≈ 6.75 µM); MIC (E. coli GN5482**): ≤ 0.05 µg/mL; MIC (Pro. vulgaris GN76**; Pro. vulgaris GN76, cephalospolinase-producing, 10^6 cells per ml): 1.56 µg/mL (≈ 3.37 µM); MIC (Ps. aeruginosa IFO3445; Ps. aeruginosa IFO3445, 10^6 cells per ml, 37° C., 20 hours): 12.5 µg/mL (≈ 27 µM); MIC (Pro. morganii T-216; 10^6 cells per ml, 20 hours): 3.13 µg/mL (≈ 6.75 µM); MIC (St. aureus FDA209P): 0.39 µg/mL (≈ 0.841 µM); MIC (Pro. mirabilis T-111; 10^6 cells per ml, 20 hours): 6.25 µg/mL (≈ 13.5 µM); MIC (Kl. pneumoniae Y-50; 20 hours): 0.78 µg/mL (≈ 1.68 µM); MIC (Kl. pneumoniae Y-41; 10^6 cells per ml): 3.13 µg/mL (≈ 6.75 µM); MIC (Ent. cloacae IID977; Ent. cloacae IID977, 10^6 cells per ml, 37° C., 20 hours): 1.56 µg/mL (≈ 3.37 µM); MIC (Aci. antitratus A-6; Aci. antitratus A-6, 10^6 cells per ml, 37° C., 20 hours): 0.39 µg/mL (≈ 0.841 µM); MIC (E. coli TK-111; E. coli TK-111, 10^6 cells per ml, 37° C., 20 hours): 0.2 µg/mL (≈ 0.431 µM); MIC (Pro. vulgaris GN3027): 0.39 µg/mL (≈ 0.841 µM); MIC (E. coli NIHJ JC-2): 0.39 µg/mL (≈ 0.841 µM); MIC (Ps. aeruginosa S-68; Ps. aeruginosa S-68, 10^6 cells per ml, 37° C., 20 hours): 6.25 µg/mL (≈ 13.5 µM); MIC (St. aureus F-137*; St. aureus F-137, penicillinase-producing, 10^6 cells per ml): 0.39 µg/mL (≈ 0.841 µM); MIC (Ps. aeruginosa GN3379*): 12.5 µg/mL (≈ 27 µM); MIC (Kl. pneumoniae Y-4*): 6.25 µg/mL (≈ 13.5 µM); MIC (E. coli TK-3*; E. coli TK-3, penicillinase-producing, 10^6 cells per ml): 1.56 µg/mL (≈ 3.37 µM)
2 | Cc1cc(O)ccc1-n1cc(C(=O)O)c(=O)cc1C1=CCCC1 | 3.13 µg/mL (≈ 10.1 µM) | 0.1 µg/mL (≈ 0.321 µM) | 0.78 µg/mL (≈ 2.51 µM) | 6.25 µg/mL (≈ 20.1 µM) | 0.78 µg/mL (≈ 2.51 µM) | 3.13 µg/mL (≈ 10.1 µM) | 0.39 µg/mL (≈ 1.25 µM) | 1.56 µg/mL (≈ 5.01 µM) | 0.78 µg/mL (≈ 2.51 µM) | 0.2 µg/mL (≈ 0.642 µM) | 0.1 µg/mL (≈ 0.321 µM) | 0.78 µg/mL (≈ 2.51 µM) | 0.78 µg/mL (≈ 2.51 µM) | 25 µg/mL (≈ 80.3 µM) | 6.25 µg/mL (≈ 20.1 µM) | – | – | – | – | – | MIC (Pro. morganii T-216; Morganella morganii, T216, 20 h, 10^6 cells per ml): 1.56 µg/mL (≈ 5.01 µM); MIC (Ent. cloacae IID977; [8]): 1.56 µg/mL (≈ 5.01 µM); MIC (Ps. aeruginosa S-68; [13]): 6.25 µg/mL (≈ 20.1 µM); MIC (E. coli TK-3*; Escherichia coli, 20 h): 1.56 µg/mL (≈ 5.01 µM)
3 | O=C(O)c1cn(-c2ccc(O)cc2)c(-c2ccc(-c3cccs3)cc2)cc1=O | 6.25 µg/mL (≈ 16 µM) | ≤ 0.05 µg/mL | 0.2 µg/mL (≈ 0.514 µM) | 1.56 µg/mL (≈ 4.01 µM) | ≤ 0.05 µg/mL | 0.39 µg/mL (≈ 1 µM) | 0.2 µg/mL (≈ 0.514 µM) | 1.56 µg/mL (≈ 4.01 µM) | 0.1 µg/mL (≈ 0.257 µM) | ≤ 0.05 µg/mL | ≤ 0.05 µg/mL | 0.1 µg/mL (≈ 0.257 µM) | ≤ 0.05 µg/mL | 3.13 µg/mL (≈ 8.04 µM) | 0.78 µg/mL (≈ 2 µM) | 0.39 µg/mL (≈ 1 µM) | 0.39 µg/mL (≈ 1 µM) | 3.13 µg/mL (≈ 8.04 µM) | 0.39 µg/mL (≈ 1 µM) | – | –
4 | CN(C)c1ccc(-c2cc(=O)c(C(=O)O)cn2-c2ccc(OS(=O)(=O)O)cc2)cc1 | 12.5 µg/mL (≈ 29 µM) | 0.2 µg/mL (≈ 0.465 µM) | – | – | 0.78 µg/mL (≈ 1.81 µM) | 25 µg/mL (≈ 58.1 µM) | 3.13 µg/mL (≈ 7.27 µM) | 25 µg/mL (≈ 58.1 µM) | – | 0.78 µg/mL (≈ 1.81 µM) | 1.56 µg/mL (≈ 3.62 µM) | 1.56 µg/mL (≈ 3.62 µM) | – | 50 µg/mL (≈ 116 µM) | 25 µg/mL (≈ 58.1 µM) | 12.5 µg/mL (≈ 29 µM) | 12.5 µg/mL (≈ 29 µM) | 25 µg/mL (≈ 58.1 µM) | 6.25 µg/mL (≈ 14.5 µM) | 50 µg/mL (≈ 116 µM) | MIC (Pro. vulgaris GN76**; Proteus vulgaris, GN76, 20 h): 3.13 µg/mL (≈ 7.27 µM); MIC (Aci. antitratus A-6; 20 h): 3.13 µg/mL (≈ 7.27 µM); MIC (St. aureus F-137*; Staphylococcus aureus, 20 h): 3.13 µg/mL (≈ 7.27 µM)
5 | O=C(O)c1cn(-c2ccc(O)cc2)c(-c2ccc3ccccc3c2)cc1=O | 6.25 µg/mL (≈ 17.5 µM) | ≤ 0.05 µg/mL | 0.39 µg/mL (≈ 1.09 µM) | – | ≤ 0.05 µg/mL | 0.78 µg/mL (≈ 2.18 µM) | 0.39 µg/mL (≈ 1.09 µM) | 1.56 µg/mL (≈ 4.37 µM) | 0.2 µg/mL (≈ 0.56 µM) | ≤ 0.05 µg/mL | 0.1 µg/mL (≈ 0.28 µM) | 0.2 µg/mL (≈ 0.56 µM) | ≤ 0.05 µg/mL | 3.13 µg/mL (≈ 8.76 µM) | 1.56 µg/mL (≈ 4.37 µM) | 0.39 µg/mL (≈ 1.09 µM) | 0.39 µg/mL (≈ 1.09 µM) | – | 0.39 µg/mL (≈ 1.09 µM) | 6.25 µg/mL (≈ 17.5 µM) | MIC (Ps. aeruginosa S-68; [13]): 1.56 µg/mL (≈ 4.37 µM)
6 | CN(C)c1ccc(-c2cc(=O)c(C(=O)O)cn2-c2ccc(F)cc2O)cc1 | 50 µg/mL (≈ 136 µM) | ≤ 0.05 µg/mL | – | – | 0.2 µg/mL (≈ 0.543 µM) | – | 1.56 µg/mL (≈ 4.23 µM) | 6.25 µg/mL (≈ 17 µM) | 0.78 µg/mL (≈ 2.12 µM) | – | 0.39 µg/mL (≈ 1.06 µM) | 0.78 µg/mL (≈ 2.12 µM) | 0.2 µg/mL (≈ 0.543 µM) | 25 µg/mL (≈ 67.9 µM) | 6.25 µg/mL (≈ 17 µM) | 3.13 µg/mL (≈ 8.5 µM) | – | 12.5 µg/mL (≈ 33.9 µM) | – | 12.5 µg/mL (≈ 33.9 µM) | MIC (Pro. vulgaris GN76**; Proteus vulgaris, GN76, 20 h): 1.56 µg/mL (≈ 4.23 µM); MIC (Pro. mirabilis T-111; Proteus mirabilis, T111, 20 h, 10^6 cells per ml): 6.25 µg/mL (≈ 17 µM); MIC (Ent. cloacae IID977; [8]): 1.56 µg/mL (≈ 4.23 µM); MIC (E. coli TK-111; Escherichia coli, TK111, 20 h): 1.56 µg/mL (≈ 4.23 µM); MIC (E. coli TK-3*; Escherichia coli, 20 h): 1.56 µg/mL (≈ 4.23 µM)
